In patent US8946381B2, “Compositions and uses thereof for the treatment of wounds” (Phylogica Limited, priority 2006, dated 2015):
“Also recorded” adds a separate entry of the source.

What was measured:
[1] = tested on: full-thickness burn wound; experiment: full-thickness burn wound model in mice, gross morphology and re-epithelialisation; assay type: in vivo, C57/B16 mice
Description: 8 week old C57/B16 mice were purchased from the Animal Resource Center, Murdoch University, Western Australia and used for all experiments. All experiments were approved by the necessary institutional animal ethics committees and were performed in accordance with the National Health and Medical Research Council (NHMRC) Australian Code of Practice for the Care and Use of Animals for Scientific Purposes.
(§1) A full-thickness burn wound was generated in a murine subject using a modified protocol based on a model previously described (Bruen et al., J Surg Res, 120: 12-20, 2004). Briefly, mice (n=34) were anesthetised (xylazine (10 mg/kg) and ketamine (100 mg/kg)) and subsequently given a full-thickness 10 mm diameter burn by contact with a brass rod (65 g) heated to 95° C. and applied for 9 seconds. 10 control animals were sacrificed post-burn, and histology confirmed all burns were full-thickness. The remaining animals (n=24) were re-hydrated and given analgesics subcutaneously immediately post-burn. The wounds were then dressed using a Tegapore™ membrane dressing (3M Healthcare Ltd) and either phosphate buffered saline (PBS) or PBS containing 20 μM peptide were instilled into the Tegapore™ and administered topically. The mice were then wrapped with a secondary absorbent dressing with minimal pressure so as not to constrict breathing and to allow free movement of the animal after recovery. Ten minutes post-injury, dressings were removed and animals allowed to recover from anesthesia in their cages with feed and water provided ad libitum.
Wounds were harvested on post-injury days 1, 3, 7 and 11 (n=3 for each time-point for both treated and control groups). Each wound was bisected along the cranial-caudal axis and one half of the tissue fixed in 4% paraformaldehyde solution and the other half stored as frozen tissue. Haematoxylin and Eosin stained sections were used to determine the quality of wound healing.
Progress of re-epithelialisation was quantitated by measuring distance between leading epithelial edges using an eye-piece graticule on histological slides. Difference between treated and control wounds was analysed using standard two-tail t-TEST for two-samples assuming unequal variance. p<0.05 is defined as the level of statistical significance.

[2] = tested on: apoptosing epidermal cells surrounding the burn injury; experiment: TUNEL assay on burn wound tissue sections; assay type: in vivo, C57/B16 mice; conditions: one day after burning
Description: as §1, with “Ten minutes post-injury, dressings were removed and animals allowed to recover from anesthesia in their cages with feed and water provided ad libitum.” left out
Tissue sections were labelled using TUNEL (Tdt-mediated dUTP Nick End Labelling) assay as previously described 13. […] Intensity of TUNEL staining was quantitated using Image J software (available from The National Institutes of Health, USA). Intensity of staining of individual nuclei were measured and normalised against the background. […]

[3] = tested on: HaCaT keratinocytes; experiment: MTT colorimetric proliferation assay, keratinocytes; assay type: cell-based; conditions: 100 nm, 1 μM or 10 μM, 24, 48 or 72 hours
Description: (§2) Cultures of keratinocytes (HaCaT cells) or fibroblasts were cultured in a microwell plate the presence of a peptide analog comprising the amino acid sequence set forth in SEQ ID NO: 104 at a concentration of 100 nm, 1 μM or 10 μM. Following an incubation period 24 hours, 48 hours, or 72 hours, cells were incubated in the presence of MTT for a sufficient time for a mitochondrial dehydrogenase enzyme from viable cells to cleave the tetrazolium rings of the pale yellow MTT and form dark blue formazan crystals. Cells were then solubilized and the level of […] crystals determined using a microtitre plate reader at 492 nm.

[4] = tested on: fibroblast cells; experiment: MTT colorimetric proliferation assay, fibroblasts; assay type: cell-based; conditions: 100 nm, 1 μM or 10 μM, 24, 48 or 72 hours
Description: as §2

## H-rerrsssqiGGsrisqyaGrrrqrrkkrG-NH2 [SEQ ID NO: 104]
[1]; day 7 post-burn
  gross morphology of wound: Early reepithelialization is present and separation of the eschar evident
[1]; day 7 post-burn, 20 μM peptide in PBS topical
  gap without epidermis (not re-epithelialized): 2 mm
[1]; day 11 post-burn, 20 μM peptide in PBS topical
  re-epithelialization of wound: re-epithelialized by day 11; also recorded: all the treated wounds are covered; also recorded: completely re-epithelialized
[1]; day 11 post-burn, 20 μM peptide in PBS topically via Tegapore dressing for ten minutes
  eschar diameter: < 2 mm
[1]; day 11 post-burn, histology
  scarring (de novo hair follicle morphogenesis): scarring has not occurred
[1]; within 24 hours post-injury, 20 μM peptide in PBS topical
  wound size between leading epidermal edges: 10 mm
[2]; 500 μm from the wound edge
  TUNEL staining intensity vs control: marked difference in intensity
[2]; 1500 μm from the wound edge
  TUNEL positive staining in epidermis: complete lack of positive staining
[3]
  cellular proliferation (MTT) vs untreated cells: increased cellular proliferation rates; also recorded: enhanced and/or induced proliferation
[4]
  cellular proliferation (MTT): did not stimulate proliferation
